# Assay results as given in article PMC9916616, “TZD-Based Hybrid Molecules Act as Dual Anti-Mycobacterium tuberculosis and Anti-Toxoplasma gondii Agents” (International Journal of Molecular Sciences, 2023).
# Read-outs that look alike come from different tables or passages of the source.
# Experiments:
# [1] = tested on: Toxoplasma gondii RH-GFP tachyzoites; test: In vitro anti-Tg assay (RH-GFP tachyzoite proliferation in Hs27 cells); assay type: cell-based; details: for SI (selectivity index, CC30/IC50Tg): CC30 in Hs27 / IC50Tg; for IC50: Toxoplasma gondii, HS27, 96 h, read-out: IC50Tg in Tg-Infected Hs27 Cells
# T98G glioblastoma cells = test: Cytotoxicity against human glioblastoma T98G cells (MTT); assay type: cell-based; details: 24 h, read-out: IC50 against T98G cells
# Description: The T98G glioblastoma cells (ATTC, CRL-1690, Manassas, VA, USA) were cultured in Dulbecco’s Modified Eagle Medium (DMEM, high glucose) (Sigma Aldrich, St. Louis, MO, USA), supplemented with 10% heat-inactivated FBS, penicillin (100 U/mL), and streptomycin (100 U/mL) (Sigma Aldrich, St. Louis, MO, USA). Cells were maintained in a humidified atmosphere of 5% CO2 and 95% air at 37 °C. Stock solutions of the investigated compounds (2, 7, 8 and 10, and temozolomide) were prepared by dissolving solid substances in sterile DMSO. T98G glioblastoma cells were seeded into 96-well sterile plates at a density of 4 × 10^4 cells/mL. After 24 h of incubation, the medium was removed from each well, and then the cells were incubated for the next 24 h with different concentrations of the investigated compounds ([…]) in the medium that contained 2% FBS. Viability of the T98G cells was evaluated using MTT assay. In brief, after 24 h of incubation of the cells with varying concentrations, 15 μL of MTT solution (5 mg/mL) was added to each well. After 3 h of incubation, […] (per well) of 10% SDS buffer solution was added. After overnight incubation, the absorbance was measured at 570 nm using a microplate reader (Epoch, BioTek Instruments, Winooski, VT, USA). Experiments were repeated three times, and the measurements in each experiment were run in quadruplicate. Viability of the investigated cells was expressed as % of the viability of the untreated cells.
# [2] = tested on: Danio rerio embryos and larvae; test: Fish embryo toxicity test (FET); assay type: in vivo; details: for Toxicity to zebrafish embryos and larvae: 5 µg/mL and 10 µg/mL, within 96 h of observation; for Mortality and deformity / Concentration at which the impact on occurrence of deformations was noticeable: zebrafish, 96 h exposure; for Mortality and deformity: concentrations above 50 μg/mL
# Description: Danio rerio (Experimental Medicine Centre, Medical University of Lublin, Poland) were maintained at 28 ± 0.5 °C, under a 14/10 h light/dark cycle with standard aquaculture conditions. After mating, the fertilized eggs were collected within 30 min. Embryos were reared in E3 embryo medium (pH 7.1–7.3; […]) in an incubator (IN 110 Memmert GmbH, Germany) at 28 ± 0.5 °C. The eggs were examined to remove the unfertilized, coagulated and damaged samples. The FET test was performed based on the OECD Guidelines for the Testing Chemicals, Test No. 236. TZD hybrids were weighted, dissolved in DMSO as stock solutions, and diluted in E3 embryo medium to the indicated treatment concentrations. The stock of TZD hybrids and dilutions in E3 embryo medium were freshly prepared before testing. Embryos were incubated at each concentration (5, 10, 15, 25, 50, 75; 100 μg/mL) of TZD hybrids. The final DMSO concentration had no detectable effects on zebrafish development. The test was conducted in 24-well plates, with 5 embryos per well and 10 per group, in triplicate. The covered plates were kept at 28 ± 0.5 °C under the light/dark conditions (12 h/12 h). Embryonic viability, and the malformation rates of each treatment group were recorded at 24, 48, 72, and 96 hpf. All experiments were conducted in accordance with the National Institute of Health Guidelines for the Care and Use of Laboratory Animals and the European Community Council Directive for the Care and Use of Laboratory Animals (2010/63/EU). For the experiments on larvae up to 5 dpf, the agreement of the Local Ethical Commission is not required.
# human red blood cells = test: Hemolytic activity determination; assay type: cell-based
# Description: Human red blood cell (RBC) concentrate was obtained from the Regional Blood Donation and Transfusion Centre (Lublin, Poland). The RBC concentrate (5 mL) was washed three times with sterile PBS and centrifuged at 500× g for 3 min. The obtained pellet was resuspended using sterile PBS in order to obtain a 2% suspension of RBCs, which was subsequently mixed with 1 mL of different concentrations (i.e., […]) of 2, 7, 8, and 10. The mixtures were incubated at 37 °C for 30 min and centrifuged at 1400× g for 10 min. The amount of free hemoglobin in the supernatants was measured spectrophotometrically at 405 nm. Negative and positive controls were performed by incubating RBCs with sterile PBS and 0.1% Triton-X, respectively. Each experiment was run in triplicate.
# in vitro = in vitro ADME; details: PAMPA, pH 7.4
# Description: BBB permeability of 2, 7, 8, and 10 was investigated using a parallel artificial membrane permeability assay (PAMPA) method. The PAMPA system, which consisted of a 96-well microfilter plate, was divided into the following two chambers: a donor at the bottom and an acceptor at the top, separated by a 120 µm thick microfilter disc coated with BBB lipid solution (Pion, Inc., Billerica, MA, USA). The solutions of 2, 7, 8, and 10 were prepared in dimethylsulfoxide (DMSO) at 4 mg/mL concentration, and then diluted with Prisma buffer (pH = 7.4) to obtain the donor drug solution with the final nominal concentration of 20 µg/mL. Then, 180 µL of the donor solution was added to the donor wells. Subsequently, each filter membrane of the top plate was coated with 5 µL of BBB-1 lipid solution (Pion Inc., Billerica, MA, USA) and the acceptor well was filled with 200 µL of brain sink buffer (BSB). The acceptor plate and the donor plate were sandwiched together and incubated at 37 °C for 180 min.
# The permeability coefficient value (Pe) was calculated using the following equation: Pe=−ln (1−CA/Cequilibrium)/S×(1/VD+1/VA)×t where VD—donor volume, VA—acceptor volume, Cequilibrium—equilibrium concentration, Cequilibrium=CD×VD+CA×VA/VD+VA , CD—donor concentration, CA—acceptor concentration, S—membrane area and t—incubation time (in seconds).
# [3] = concentration reducing Hs27 viability by 30%, MTT, 24 h
Structure (SMILES),CC30 in Hs27 Cells (Hs27 cells; [3]) [µg/mL],"SI (selectivity index, CC30/IC50Tg) [1]",IC50 [1] [µg/mL],CC30 in Hs27 Cells (Hs27 cells; human) [µg/mL],IC50 (T98G glioblastoma cells) [µg/mL],Toxicity to zebrafish embryos and larvae [2],Mortality and deformity [2] [%],Hemolytic activity (in words) (human red blood cells),"Papp at 180 min, 20 µg/mL (in vitro) [×10⁻⁶ cm/s]",Concentration at which the impact on occurrence of deformations was noticeable [2] [ng/mL]
"O=C1C(O)=C([C@H]2CC[C@H](c3ccc(Cl)cc3)CC2)C(=O)c2ccccc21 [ATO, atovaquone, reference compound]",54.26,227.55,0.24,–,–,–,–,–,–,–
"CCc1nc(N)nc(N)c1-c1ccc(Cl)cc1 [PYR, pyrimethamine, reference compound]",49.62,17.38,2.86,–,–,–,–,–,–,–
"Nc1ccc(S(=O)(=O)Nc2ncccn2)cc1 [SDZ, sulfadiazine, reference compound]",–,1.78,1250,2230.61,–,–,–,–,–,–
"COc1cc(Cc2cnc(N)nc2N)cc(OC)c1OC [TRI, trimethoprim, reference compound]",–,5.53,14.8,81.82,–,–,–,–,–,–
"Cn1nnc2c(C(N)=O)ncn2c1=O [Temozolomide, temozolomide, reference compound]",–,–,–,–,> 100,–,–,–,–,–
O=C(/C=C1\SC(=O)NC1=O)Oc1cccc(/C=N/NC(=O)c2ccncc2)c1 [compound 1],128.27,9.92,12.9,–,–,–,–,–,–,–
O=C(CC1SC(=O)NC1=O)Oc1ccc(/C=N/NC(=O)c2ccncc2)cc1 (centres unmarked) [compound 2],>995.98,>118.93,8.37,–,19.4 ± 1.13,not toxic,100,no specific hemolytic activity,12.4 ± 1.02,–
COc1cc(/C=N/NC(=O)c2ccncc2)ccc1OC(=O)CC1SC(=O)NC1=O (centres unmarked) [compound 3],>1071.05,>48.35,22.1,–,–,–,–,–,–,–
CCOc1cc(/C=N/NC(=O)c2ccncc2)ccc1OC(=O)CC1SC(=O)NC1=O (centres unmarked) [compound 4],654.42,16.77,39,–,–,–,–,–,–,–
O=C(CC1SC(=O)NC1=O)Oc1ccc(/C=N/NC(=O)c2ccncc2)cc1Cl (centres unmarked) [compound 5],>1082.10,>44.48,24.3,–,–,–,–,–,–,–
O=C(CC1SC(=O)NC1=O)Oc1ccc(/C=N/NC(=O)c2ccncc2)cc1Br (centres unmarked) [compound 6],>1193.22,>43.81,27.2,–,–,–,–,–,–,–
NC(=S)N/N=C/c1ccc(OC(=O)CC2SC(=O)NC2=O)cc1 (centres unmarked) [compound 7],>880.97,>148.28,5.94,–,> 100,not toxic,100,no specific hemolytic activity,23.1 ± 0.71,25000
NC(=S)N/N=C/c1ccc(OC(=O)CC2SC(=O)NC2=O)c(Cl)c1 (centres unmarked) [compound 8],>967.09,>110.67,8.74,–,> 100,not toxic,100,no specific hemolytic activity,26.1 ± 1.3,25000
NC(=S)N/N=C/c1ccc(OC(=O)CC2SC(=O)NC2=O)c(Br)c1 (centres unmarked) [compound 9],>1078.21,>87.75,12.3,–,–,–,–,–,–,–
NC(=S)N/N=C/c1ccc(OC(=O)/C=C2\SC(=O)NC2=O)cc1 [compound 10],312.27,58.71,5.32,–,94.6 ± 6.16,not toxic,100,no specific hemolytic activity,24.4 ± 0.93,–
COc1cc(/C=N/NC(N)=S)ccc1OC(=O)/C=C1\SC(=O)NC1=O [compound 11],>951.00,>78.81,12.1,–,–,–,–,–,–,–
NC(=S)N/N=C/c1ccc(OC(=O)/C=C2\SC(=O)NC2=O)c(Cl)c1 [compound 12],>962.05,>94.59,10.2,–,–,–,–,–,–,–
